Laboratory results as given in ChEMBL document CHEMBL1145882, “High affinity, bioavailable 3-amino-1,4-benzodiazepine-based gamma-secretase inhibitors” (Bioorg Med Chem Lett, 2003).

Tests used:
Gamma-secretase = assay: In vitro inhibition of gamma secretase.; type: protein-complex assay, Homo sapiens
[1] = Area under curve at 4 hr in rat; type: ADME, organism-based; design: time < 4 hr; details: in vivo
[2] = Cmax value at 5 mg/kg po in rat; type: ADME, organism-based; design: dose 5 mg/kg, route oral; details: in vivo
[3] = Cmax value at 1 mg/kg po in rat; type: ADME, organism-based; design: dose 1 mg/kg, route oral; details: in vivo
[4] = Bioavailability in rat; type: ADME, organism-based; details: in vivo
[5] = Half life period was determined; type: ADME; details: rat
[6] = Cmax value at 5 mg/kg po was determined in rat; type: ADME, organism-based; design: dose 5 mg/kg, route oral; details: in vivo

SMILES | IC50 (Gamma-secretase) | other results
C[C@@H](Cc1ccc(F)c(F)c1)C(=O)N[C@H]1N=C(c2ccc3c(=O)[nH]ccc3c2)c2ccccc2N(C)C1=O | 0.2 nM | –
C[C@@H](Cc1ccc(F)c(F)c1)C(=O)N[C@H]1N=C(c2ccc3c(c2)OCCO3)c2ccccc2N(C)C1=O | 4.7 nM | –
C[C@@H](Cc1ccc(F)c(F)c1)C(=O)NC1N=C(c2ccc(C(N)=O)cc2)c2ccccc2N(C)C1=O (stereo partly specified) | 0.49 nM | –
C[C@@H](Cc1ccc(F)c(F)c1)C(=O)N[C@H]1N=C(c2ccc3c(c2)OCO3)c2ccccc2NC1=O | 1.8 nM | –
C[C@@H](Cc1ccc(F)c(F)c1)C(=O)N[C@H]1N=C(c2ccc3c(c2)OCO3)c2ccccc2N(C)C1=O | 13.2 nM | AUC at 4 h [1]: 0.09 µM·h; Cmax [2]: 40 nM
C[C@@H](Cc1ccc(F)c(F)c1)C(=O)N[C@H]1N=C(c2ccc3c(=O)ccoc3c2)c2ccccc2N(C)C1=O | 1.2 nM | –
C[C@@H](Cc1ccc(F)c(F)c1)C(=O)N[C@H]1N=C(c2ccc3c(c2)CCC(=O)N3)c2ccccc2N(C)C1=O | 101 nM | –
C[C@@H](Cc1ccc(F)c(F)c1)C(=O)N[C@H]1N=C(c2ccc3c(c2)CCN(C)C3=O)c2ccccc2N(C)C1=O | 1880 nM | –
C[C@@H](Cc1ccc(F)c(F)c1)C(=O)N[C@H]1N=C(c2ccc3c(c2)OC(F)(F)O3)c2ccccc2N(C)C1=O | 28 nM | –
CC(=O)CCN1C(=O)[C@@H](NC(=O)[C@@H](C)Cc2ccc(F)c(F)c2)N=C(c2ccc3c(c2)OCO3)c2ccccc21 | 3.7 nM | –
C[C@@H](Cc1ccc(F)c(F)c1)C(=O)N[C@H]1N=C(c2ccc3c(c2)OCO3)c2ccccc2N(CC(=O)N(C)C)C1=O | 5.5 nM | –
C[C@@H](Cc1ccc(F)c(F)c1)C(=O)N[C@H]1N=C(c2ccc3c(c2)CCC3=O)c2ccccc2N(C)C1=O | 3.6 nM | –
C[C@@H](Cc1ccc(F)c(F)c1)C(=O)N[C@H]1N=C(c2ccc3c(c2)CCNC3=O)c2ccccc2N(C)C1=O | 0.3 nM | AUC at 4 h [1]: < 0.004 µM·h; Cmax [3]: 2 nM
CNC(=O)CN1C(=O)[C@@H](NC(=O)[C@@H](C)Cc2ccc(F)c(F)c2)N=C(c2ccc3c(c2)OCO3)c2ccccc21 | 1.8 nM | –
C[C@@H](Cc1ccc(F)c(F)c1)C(=O)N[C@H]1N=C(c2ccc3c(c2)CCCC3=O)c2ccccc2N(C)C1=O | 2.2 nM | –
COC(=O)CN1C(=O)[C@@H](NC(=O)[C@@H](C)Cc2ccc(F)c(F)c2)N=C(c2ccc3c(c2)OCO3)c2ccccc21 | 12.7 nM | –
C[C@@H](Cc1ccc(F)c(F)c1)C(=O)N[C@H]1N=C(c2ccc3c(c2)OCO3)c2ccccc2N(CC(N)=O)C1=O | 13.2 nM | bioavailability [4]: 22%; half-life [5]: 1.4 h; AUC at 4 h [1]: 2.9 µM·h; Cmax [6]: 900 nM
C[C@@H](Cc1ccc(F)c(F)c1)C(=O)N[C@H]1N=C(c2ccc3c(c2)OCO3)c2ccccc2N(CCO)C1=O | 0.9 nM | –
